Consider 23 molecules from patent publication US9452980B2, “Substituted benzamides” (Hoffmann-La Roche Inc., priority 2009, dated 2016).

Each structure is given as a SMILES string. Where a name gives a salt, the structure may show the parent alone. Read-outs that look alike come from different tables or passages of the source.

One assay deals with mouse TAAR1 (Mus musculus (Mouse), UniProt Q923Y8). Put plainly: Radioligand binding assay on mouse TAAR1. The settings on record: mouse TAAR1, HEK-293 membranes, first value of cell mouse/rat; read-out: Ki (μM) mouse. The procedure:
(§1) For the construction of expression plasmids the coding sequences of human, rat and mouse TAAR1 were amplified from genomic DNA essentially as described by Lindemann et al.. The Expand High Fidelity PCR System (Roche Diagnostics) was used with 1.5 mM Mg^2+ and purified PCR products were cloned into pCR2.1-TOPO cloning vector (Invitrogen) following the instructions of the manufacturer. PCR products were subcloned into the pIRESneo2 vector (BD Clontech, Palo Alto, Calif.), and expression vectors were sequence verified before introduction in cell lines.
(§2) HEK293 cells (ATCC #CRL-1573) were cultured essentially as described by Lindemann et al. (2005). For the generation of stably transfected cell lines HEK293 cells were transfected with the pIRESneo2 expression plasmids containing the TAAR coding sequences (described above) with Lipofectamine 2000 (Invitrogen) according to the instructions of the manufacturer, and 24 hrs post transfection the culture medium was supplemented with 1 mg/ml G418 (Sigma, Buchs, Switzerland). After a culture period of about 10 d clones were isolated, expanded and tested for responsiveness to trace amines (all compounds purchased from Sigma) with the cAMP Biotrak Enzyme immunoassay (EIA) System (Amersham) following the non-acetylation EIA procedure provided by the manufacturer.
Radioligand Binding Assay on Mouse TAAR1
(§3) Membrane Preparation and Radioligand Binding.
(§4) HEK-293 cells stably expressing mouse TAAR1 were maintained at 37° C. and 5% CO2 in DMEM high glucose medium, containing fetal calf serum (10%, heat inactivated for 30 min at 56° C.), penicillin/streptomycin (1%), and 375 μg/ml geneticin (Gibco). Cells were released from culture flasks using trypsin/EDTA, harvested, washed twice with ice-cold PBS (without Ca^2+ and Mg^2+), pelleted at 1,000 rpm for 5 min at 4° C., frozen and stored at −80° C. Frozen pellets were suspended in 20 ml HEPES-NaOH (20 mM, pH 7.4) containing 10 mM EDTA and homogenized with a Polytron (PT 6000, Kinematica) at 14,000 rpm for 20 s. The homogenate was centrifuged at 48,000×g for 30 min at 4° C. Subsequently, the supernatant was removed and discarded, and the pellet resuspended in 20 ml HEPES-NaOH (20 mM, pH 7.4) containing 0.1 mM EDTA using the Polytron (20 s at 14,000 rpm). This procedure was repeated and the final pellet resuspended in HEPES-NaOH containing 0.1 mM EDTA and homogenized using the Polytron. Typically, aliquots of 2 ml membrane portions were stored at −80° C. With each new membrane batch the dissociation constant (Kd) was determined via a saturation curve. […] Nonspecific binding was defined as the amount of ^3[H]—(S)-4-[(ethyl-phenyl-amino)-methyl]-4,5-dihydro-oxazol-2-ylamine bound in the presence of 10 μM unlabeled ligand. All compounds were tested at a broad range of concentrations (10 pM to 10 μM) in duplicates. […] The 96 deep well plates were incubated for 1 hr at 4° C. Incubations were terminated by rapid filtration through Unifilter-96 plates (Packard Instrument Company) and glass filters GF/C (Perkin Elmer) presoaked for 1 hr in polyethylenimine (0.3%) and washed 3 times with 1 ml of cold binding buffer. After addition of 45 μl of Microscint 40 (PerkinElmer) the Unifilter-96 plate was sealed and after 1 hr the ratioactivity counted using a TopCount Microplate Scintillation Counter (Packard Instrument Company).

The target of a further assay is rat TAAR1 (Rattus norvegicus (Rat), UniProt Q923Y9). Put plainly: Radioligand binding assay on rat TAAR1. Particulars: read-out: Ki (μM) rat. The procedure:
as §1, §2
Radioligand Binding Assay on Rat TAAR1
as §3
as §4, with “rat” for “mouse”

[1] abbreviates: rat TAAR1, HEK-293 membranes, second value of cell mouse/rat.

rat TAAR1, sequence (Q923Y9 whole entry): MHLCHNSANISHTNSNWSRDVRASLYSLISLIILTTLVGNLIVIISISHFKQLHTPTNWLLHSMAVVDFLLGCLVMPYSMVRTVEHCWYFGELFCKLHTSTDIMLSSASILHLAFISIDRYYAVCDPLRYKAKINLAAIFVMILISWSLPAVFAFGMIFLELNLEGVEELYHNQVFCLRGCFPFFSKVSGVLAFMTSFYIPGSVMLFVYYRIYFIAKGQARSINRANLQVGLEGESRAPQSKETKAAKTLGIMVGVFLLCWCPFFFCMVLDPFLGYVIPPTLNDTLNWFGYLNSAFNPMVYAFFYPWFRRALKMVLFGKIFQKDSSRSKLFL
mouse TAAR1, sequence (Q923Y8 whole entry): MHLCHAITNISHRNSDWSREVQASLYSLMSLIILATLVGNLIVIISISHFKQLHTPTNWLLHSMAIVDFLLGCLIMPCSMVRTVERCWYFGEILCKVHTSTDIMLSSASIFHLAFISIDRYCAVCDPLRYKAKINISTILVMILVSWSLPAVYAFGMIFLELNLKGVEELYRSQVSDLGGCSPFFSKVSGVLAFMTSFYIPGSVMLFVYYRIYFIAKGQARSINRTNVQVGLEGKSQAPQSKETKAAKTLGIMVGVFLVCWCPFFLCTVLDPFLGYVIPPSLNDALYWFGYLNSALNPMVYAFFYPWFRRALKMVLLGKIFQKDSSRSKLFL

For `CCSc1ccc(C(=O)Nc2ccc([C@@H]3CCCNC3)cc2)cc1` [Example 237, (S)-4-(Ethylthio)-N-(4-(piperidin-3-yl)phenyl)benzamide hydrochloride], the values for the Ki on mouse TAAR1 and on rat TAAR1 (setting [1]) were 0.0677 µM and 0.0008 µM, respectively. Take `O=C(Nc1ccc(C2CNCCO2)cc1)c1ccnc(C(F)(F)F)c1` (racemic) [Example 280, (RS)—N-(4-(Morpholin-2-yl)phenyl)-2-(trifluoromethyl)isonicotinamide hydrochloride]: the Ki – broadly, the equilibrium dissociation constant of an inhibitor or competing ligand from its target – amounted to 0.0172 µM on mouse TAAR1 and 0.0069 µM at rat TAAR1 (setting [1]). Turning to `O=C(Nc1ccc([C@@H]2CNC[C@H]2O)cc1)c1ccc(Cl)cc1` (racemic) [Example 63, 4-Chloro-N-[4-((3RS,4SR)-4-hydroxy-pyrrolidin-3-yl)-phenyl]-benzamide hydrochloride], the values for the Ki on mouse TAAR1 and at rat TAAR1 (setting [1]) were 0.0837 µM and 0.174 µM, respectively.

As to `O=C(Nc1ccc(C2CCCNC2)cc1)c1ccc(Cl)c(Cl)c1` (racemic) [Example 96, (RS)-3,4-Dichloro-N-(4-piperidin-3-yl-phenyl)-benzamide hydrochloride], the Ki at mouse TAAR1 is 0.0016 µM; at rat TAAR1 (setting [1]), 0.0067 µM. Take `CN1CCN(c2ccc(NC(=O)Nc3ccc(-c4cnco4)cc3)cc2)CC1` [Example 4, 1-[4-(4-Methyl-piperazin-1-yl)-phenyl]-3-(4-oxazol-5-yl-phenyl)-urea]: the inhibitory constant (Ki) at mouse TAAR1 came out at 0.0189 µM; at rat TAAR1 (setting [1]) it was 0.0837 µM. As to `CCOc1ccc(C(=O)Nc2ccc(C3CNCCO3)cc2)cn1` (racemic) [Example 245, (RS)-6-Ethoxy-N-(4-(morpholin-2-yl)phenyl)nicotinamide hydrochloride], the Ki at mouse TAAR1 came to 0.0649 µM; at rat TAAR1 (setting [1]) it was 0.0063 µM. With `O=C(Nc1ccc(C2CCCCN2)cc1)c1ccc(Cl)cc1` (racemic) [Example 159, (RS)-4-Chloro-N-(4-piperidin-2-yl-phenyl)-benzamide hydrochloride], the results for the Ki on mouse TAAR1 and on rat TAAR1 (setting [1]) were 6.38 µM and 0.63 µM, respectively.

With `O=C(Nc1ccc([C@H]2CNCCCO2)cc1)c1cccc(Cl)c1` [Example 308, (S)—N-(4-(1,4-Oxazepan-2-yl)phenyl)-3-chlorobenzamide hydrochloride], the Ki on mouse TAAR1 was 0.287 µM; at rat TAAR1 (setting [1]), 0.0018 µM.

As to `O=C(Nc1ccc(Cl)cc1)Nc1ccc(C2CCNC2)cc1` (racemic) [Example 5, (RS)-1-(4-Chloro-phenyl)-3-(4-pyrrolidin-3-yl-phenyl)-urea hydrochloride], the Ki on mouse TAAR1 amounted to 0.0015 µM; on rat TAAR1 (setting [1]), 0.0027 µM.

Consider `O=C(Nc1ccc(C2CNCCO2)cc1)c1ccccc1` (racemic) [Example 188, (RS)—N-(4-(Morpholin-2-yl)phenyl)benzamide hydrochloride], for which the Ki stood at 0.138 µM at mouse TAAR1 and 0.0055 µM at rat TAAR1. With `COc1ccc(C(=O)Nc2ccc(C3CCNC3)cc2)c(OC)n1` (racemic) [Example 95, (RS)-2,6-Dimethoxy-N-(4-pyrrolidin-3-yl-phenyl)-nicotinamide], the Ki on mouse TAAR1 was determined as 0.0385 µM; on rat TAAR1 (setting [1]), 0.322 µM. The corresponding values for `O=C(Nc1ccc([C@@H]2CNC[C@@H]2F)cc1)c1ccc(Cl)cc1` (racemic) [Example 69, 4-Chloro-N-[4-((3RS,4RS)-4-fluoro-pyrrolidin-3-yl)-phenyl]-benzamide hydrochloride] are 0.0048 µM and 0.023 µM. The corresponding values for `O=C(Nc1ccc([C@@H]2CCCNC2)cc1)OCc1ccc(Cl)cc1` [Example 240, (S)-4-chlorobenzyl 4-(piperidin-3-yl)phenylcarbamate hydrochloride] are 0.0146 µM and 0.0009 µM. Take `O=C(Nc1ccc(CCC2CCCN2)cc1)c1ccc(F)cn1` (racemic) [Example 166, (RS)-5-Fluoro-N-(4-(2-(pyrrolidin-2-yl)ethyl)phenyl)picolinamide hydrochloride]: the values for the inhibition constant Ki on mouse TAAR1 and on rat TAAR1 (setting [1]) were 0.394 µM and 0.0212 µM, respectively.

With `CCc1ccc(C(=O)Nc2ccc(C3CNCCO3)cc2)cc1` (racemic) [Example 198, (RS)-4-Ethyl-N-(4-(morpholin-2-yl)phenyl)benzamide hydrochloride], the Ki was determined as 0.0147 µM at mouse TAAR1 and 0.0028 µM on rat TAAR1 (setting [1]). With `O=C(Nc1ccc([C@@H]2CNCCO2)cc1)c1ccc(Cl)nc1` [Example 207, (R)-6-Chloro-N-(4-(morpholin-2-yl)phenyl)nicotinamide hydrochloride], the Ki on mouse TAAR1 is 0.0525 µM; at rat TAAR1, 0.0042 µM.

Turning to `O=C(Nc1ccc([C@H]2CCCNC2)cc1)c1cccc(C(F)(F)F)c1` [Example 261, (R)—N-(4-(Piperidin-3-yl)phenyl)-3-(trifluoromethyl)benzamide hydrochloride], the Ki was found to be 0.0027 µM at mouse TAAR1 and 0.0015 µM on rat TAAR1. Take `O=C(O)c1ccc(COc2ccc(C(=O)Nc3ccc(C4CNCCO4)cc3)cc2)cc1` (racemic) [Example 212, (RS)-4-((4-(4-(morpholin-2-yl)phenylcarbamoyl)phenoxy)methyl)benzoic acid hydrochloride]: the Ki turned out to be 2.5 µM on mouse TAAR1 and 0.296 µM at rat TAAR1 (setting [1]).

Turning to `O=C(Nc1ccc(C2CNCCO2)cc1)c1csc(-c2ncccn2)n1` (racemic) [Example 290, (RS)—N-(4-(Morpholin-2-yl)phenyl)-2-(pyrimidin-2-yl)thiazole-4-carboxamide hydrochloride], the Ki on mouse TAAR1 was 0.0608 µM; on rat TAAR1 (setting [1]), 0.324 µM.

In the case of `O=C(Nc1ccc(C2CCCNC2)cc1)c1ccc(Cl)cc1Cl` (racemic) [Example 99, (RS)-2,4-Dichloro-N-(4-piperidin-3-yl-phenyl)-benzamide hydrochloride], the Ki on mouse TAAR1 worked out at 0.013 µM; on rat TAAR1 (setting [1]), 0.0501 µM. The corresponding values for `COc1ccc2nc(C(=O)Nc3ccc(C4CCNC4)cc3)ccc2c1` (racemic) [Example 91, (RS)-6-Methoxy-quinoline-2-carboxylic acid (4-pyrrolidin-3-yl-phenyl)-amide hydrochloride] are 0.0039 µM and 0.0223 µM. For `O=C(Nc1ccc(C2CNCCO2)cc1)c1ccc(Cl)c(Cl)c1` (racemic) [Example 147, (RS)-3,4-Dichloro-N-(4-morpholin-2-yl-phenyl)-benzamide hydrochloride], on mouse TAAR1, the Ki was 0.001 µM.

For `O=C(Nc1ccc(C2CCNC2)cn1)c1ccc(Cl)cc1` (racemic) [Example 181, (RS)-4-Chloro-N-(5-(pyrrolidin-3-yl)pyridin-2-yl)benzamide hydrochloride], the Ki at mouse TAAR1 was 0.0663 µM.
